The record followed here is ChEMBL document CHEMBL1909046, “DrugMatrix in vitro pharmacology data”.

One data set deals with Adenosine receptor A2a (Homo sapiens, UniProt P29274). Kind of data set: DRUGMATRIX: Adenosine A2A radioligand binding (ligand: […]). In kind it is cell membranes, HEK293, Membrane. To be noted: hek293; Not Active = under 50% inhibition at 10 µM.
In data set [1] the target is Voltage-gated inwardly rectifying potassium channel KCNH2 (Homo sapiens, UniProt Q12809). To be noted: hek293. Note: in other assays of this panel Not Active means under 50% inhibition at 10 µM.
Voltage-gated inwardly rectifying potassium channel KCNH2, sequence (Q12809 whole entry): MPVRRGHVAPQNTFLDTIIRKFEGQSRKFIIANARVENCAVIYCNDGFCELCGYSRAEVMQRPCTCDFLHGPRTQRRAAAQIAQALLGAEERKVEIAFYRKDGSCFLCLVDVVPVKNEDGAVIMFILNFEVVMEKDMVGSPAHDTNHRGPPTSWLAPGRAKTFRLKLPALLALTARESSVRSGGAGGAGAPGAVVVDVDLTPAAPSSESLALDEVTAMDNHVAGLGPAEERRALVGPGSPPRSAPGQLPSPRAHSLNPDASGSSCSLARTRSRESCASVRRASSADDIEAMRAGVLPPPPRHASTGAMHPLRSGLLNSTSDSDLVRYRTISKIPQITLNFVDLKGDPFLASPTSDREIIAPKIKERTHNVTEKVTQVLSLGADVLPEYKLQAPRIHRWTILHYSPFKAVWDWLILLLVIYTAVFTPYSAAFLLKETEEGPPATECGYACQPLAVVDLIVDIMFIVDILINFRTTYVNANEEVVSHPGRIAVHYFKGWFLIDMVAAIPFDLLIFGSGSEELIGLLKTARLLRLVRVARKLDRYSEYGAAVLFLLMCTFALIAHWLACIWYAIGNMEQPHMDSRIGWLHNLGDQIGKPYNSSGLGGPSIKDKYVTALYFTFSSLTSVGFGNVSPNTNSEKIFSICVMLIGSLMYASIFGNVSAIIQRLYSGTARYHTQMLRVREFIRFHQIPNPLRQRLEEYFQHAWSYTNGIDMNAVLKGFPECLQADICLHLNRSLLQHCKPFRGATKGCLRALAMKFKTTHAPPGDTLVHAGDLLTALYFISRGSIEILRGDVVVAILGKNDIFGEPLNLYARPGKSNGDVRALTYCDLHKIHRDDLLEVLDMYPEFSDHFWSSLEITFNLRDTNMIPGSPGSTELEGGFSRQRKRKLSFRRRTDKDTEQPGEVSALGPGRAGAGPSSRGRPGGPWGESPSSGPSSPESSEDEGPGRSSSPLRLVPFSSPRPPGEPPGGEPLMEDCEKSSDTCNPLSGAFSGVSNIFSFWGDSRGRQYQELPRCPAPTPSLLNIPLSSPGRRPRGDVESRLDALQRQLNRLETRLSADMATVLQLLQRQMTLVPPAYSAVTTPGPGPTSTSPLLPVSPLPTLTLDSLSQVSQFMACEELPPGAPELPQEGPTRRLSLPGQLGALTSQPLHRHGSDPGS
Data set [2] concerns the target Mitogen-activated protein kinase 14 (Homo sapiens, UniProt Q16539). Also noted: species or system Escherichia coli.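 Note: inhibition of p38alpha enzyme activity in a biochemical kinase assay, with myelin basic protein serving as substrate; in other assays of this panel Not Active means under 50% inhibition at 10 µM.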
Data set [3] deals with T1, Angiotensin-converting enzyme (Oryctolagus cuniculus, UniProt P12822).
T1 sequence (P12822 whole entry): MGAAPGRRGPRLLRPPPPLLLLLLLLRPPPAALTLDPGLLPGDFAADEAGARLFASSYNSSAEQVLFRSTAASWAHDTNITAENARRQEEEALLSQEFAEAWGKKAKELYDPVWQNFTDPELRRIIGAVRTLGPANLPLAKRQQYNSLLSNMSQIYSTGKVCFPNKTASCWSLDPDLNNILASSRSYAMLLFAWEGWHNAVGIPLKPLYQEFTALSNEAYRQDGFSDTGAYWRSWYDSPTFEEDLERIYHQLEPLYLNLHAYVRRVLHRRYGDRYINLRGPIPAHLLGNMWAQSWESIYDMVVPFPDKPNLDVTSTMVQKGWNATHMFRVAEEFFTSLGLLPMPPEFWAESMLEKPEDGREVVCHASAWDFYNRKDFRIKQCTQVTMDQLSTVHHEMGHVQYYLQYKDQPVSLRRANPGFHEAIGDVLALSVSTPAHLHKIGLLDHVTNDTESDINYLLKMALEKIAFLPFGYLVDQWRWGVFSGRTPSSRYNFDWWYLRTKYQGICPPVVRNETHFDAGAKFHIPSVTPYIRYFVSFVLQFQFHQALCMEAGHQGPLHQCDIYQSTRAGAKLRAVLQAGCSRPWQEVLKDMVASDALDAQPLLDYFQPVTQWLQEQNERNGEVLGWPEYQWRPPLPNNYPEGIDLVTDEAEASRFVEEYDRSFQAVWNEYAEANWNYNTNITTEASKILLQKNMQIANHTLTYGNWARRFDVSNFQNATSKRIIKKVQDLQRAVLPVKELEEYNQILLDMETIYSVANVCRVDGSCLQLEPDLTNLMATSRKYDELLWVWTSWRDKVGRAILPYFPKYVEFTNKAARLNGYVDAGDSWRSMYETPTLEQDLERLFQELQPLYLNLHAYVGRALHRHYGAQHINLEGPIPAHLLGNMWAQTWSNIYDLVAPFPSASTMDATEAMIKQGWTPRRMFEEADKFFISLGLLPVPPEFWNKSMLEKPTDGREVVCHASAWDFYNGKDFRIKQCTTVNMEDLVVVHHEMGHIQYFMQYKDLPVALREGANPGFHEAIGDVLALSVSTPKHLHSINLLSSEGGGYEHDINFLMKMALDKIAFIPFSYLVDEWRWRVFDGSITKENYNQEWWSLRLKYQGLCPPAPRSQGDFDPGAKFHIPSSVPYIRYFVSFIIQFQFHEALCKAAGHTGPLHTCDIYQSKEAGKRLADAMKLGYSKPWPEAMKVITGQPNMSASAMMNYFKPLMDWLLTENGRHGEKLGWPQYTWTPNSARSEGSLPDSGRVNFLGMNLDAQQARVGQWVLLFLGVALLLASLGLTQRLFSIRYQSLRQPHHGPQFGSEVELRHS
In kind it is tissue-based, Lung.

Data set [4] deals with T2, Neuropeptide Y receptor type 2 (Homo sapiens, UniProt P49146).
T2 sequence (P49146 whole entry): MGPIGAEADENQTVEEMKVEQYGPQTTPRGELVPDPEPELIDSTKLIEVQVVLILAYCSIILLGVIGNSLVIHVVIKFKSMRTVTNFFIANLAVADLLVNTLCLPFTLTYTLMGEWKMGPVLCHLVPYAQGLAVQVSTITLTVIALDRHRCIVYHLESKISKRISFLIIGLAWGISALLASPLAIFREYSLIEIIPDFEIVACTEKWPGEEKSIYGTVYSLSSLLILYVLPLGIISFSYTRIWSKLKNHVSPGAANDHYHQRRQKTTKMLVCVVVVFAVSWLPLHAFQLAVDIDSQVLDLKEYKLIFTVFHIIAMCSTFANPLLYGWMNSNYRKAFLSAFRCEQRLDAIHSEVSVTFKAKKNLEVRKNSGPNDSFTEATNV
Format: cell membranes, Membrane. To be noted: kan-ts.

The target in data set [5] is T3, Alpha-2A adrenergic receptor (Homo sapiens, UniProt P08913). Note: in other assays of this panel Not Active means under 50% inhibition at 10 µM.
T3 sequence (P08913 whole entry): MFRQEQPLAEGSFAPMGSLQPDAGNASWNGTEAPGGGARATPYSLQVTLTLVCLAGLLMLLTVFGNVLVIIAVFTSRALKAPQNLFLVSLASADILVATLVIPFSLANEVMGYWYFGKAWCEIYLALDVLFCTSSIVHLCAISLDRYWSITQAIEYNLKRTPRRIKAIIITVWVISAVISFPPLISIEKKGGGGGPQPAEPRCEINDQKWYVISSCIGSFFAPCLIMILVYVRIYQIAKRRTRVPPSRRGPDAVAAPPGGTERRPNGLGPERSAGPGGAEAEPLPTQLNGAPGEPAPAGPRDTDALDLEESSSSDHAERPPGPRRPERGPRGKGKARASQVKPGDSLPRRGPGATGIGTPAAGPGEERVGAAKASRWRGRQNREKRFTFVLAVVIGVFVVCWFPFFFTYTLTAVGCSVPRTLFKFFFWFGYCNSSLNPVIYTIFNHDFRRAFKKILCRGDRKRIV
In kind it is cell membranes, Sf9, Membrane.

Mitogen-activated protein kinase 14, sequence (Q16539 whole entry): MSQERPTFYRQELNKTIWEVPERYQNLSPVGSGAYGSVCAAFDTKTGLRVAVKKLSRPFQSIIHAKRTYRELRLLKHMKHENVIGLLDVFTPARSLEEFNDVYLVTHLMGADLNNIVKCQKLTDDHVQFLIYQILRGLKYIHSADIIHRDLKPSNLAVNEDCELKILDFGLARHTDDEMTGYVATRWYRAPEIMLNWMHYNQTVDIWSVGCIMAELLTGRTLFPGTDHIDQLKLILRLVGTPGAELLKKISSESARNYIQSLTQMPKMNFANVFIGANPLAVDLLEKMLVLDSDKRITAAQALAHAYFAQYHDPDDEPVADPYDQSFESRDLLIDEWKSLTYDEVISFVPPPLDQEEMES
Adenosine receptor A2a, sequence (P29274 whole entry): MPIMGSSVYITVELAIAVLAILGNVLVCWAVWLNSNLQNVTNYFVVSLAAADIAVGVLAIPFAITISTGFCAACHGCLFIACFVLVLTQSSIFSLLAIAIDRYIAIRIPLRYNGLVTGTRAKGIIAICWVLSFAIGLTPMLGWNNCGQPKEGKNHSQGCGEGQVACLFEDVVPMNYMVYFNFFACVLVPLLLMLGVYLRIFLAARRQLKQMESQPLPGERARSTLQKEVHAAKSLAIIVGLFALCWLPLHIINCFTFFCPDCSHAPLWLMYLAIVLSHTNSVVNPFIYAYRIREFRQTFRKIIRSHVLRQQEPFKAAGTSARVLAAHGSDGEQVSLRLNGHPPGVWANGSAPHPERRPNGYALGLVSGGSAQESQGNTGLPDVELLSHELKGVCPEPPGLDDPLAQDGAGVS

As a reminder, the IC50 is the point on the concentration scale where inhibition reaches its midpoint. What is called Ki is the equilibrium dissociation constant of an inhibitor or competing ligand from its target. In the case of `C=C(C)[C@H]1Cc2c(ccc3c2O[C@@H]2COc4cc(OC)c(OC)cc4[C@@H]2C3=O)O1` [ROTENONE], the IC50 entry (on Adenosine receptor A2a; in data set [1]; in data set [2]; in data set [3]; in data set [4]; in data set [5] (sf9)) was “Not Active” each time. Also, the Ki result in data set [1] is listed as “Not Active”.
Turning to `C#CCN(C)[C@H](C)Cc1ccccc1` [SELEGILINE], the IC50 result is “Not Active” on Adenosine receptor A2a; “Not Active” in data set [1]; “Not Active” in data set [2]; “Not Active” in data set [3]; “Not Active” in data set [4]; 1800 nM in data set [5] (read-out: IC50). Besides, the Ki result in data set [1] is “Not Active”; in data set [5] (read-out: Ki) it was 674 nM.
Consider `CO[C@H]1C[C@@H]2CC[C@@H](C)[C@@](O)(O2)C(=O)C(=O)N2CCCC[C@H]2C(=O)O[C@H]([C@H](C)C[C@@H]2CC[C@@H](O)[C@H](OC)C2)CC(=O)[C@H](C)/C=C(\C)[C@@H](O)[C@@H](OC)C(=O)[C@H](C)C[C@H](C)/C=C/C=C/C=C/1C` [SIROLIMUS], for which the IC50 result (on Adenosine receptor A2a; in data set [1]; in data set [2]; in data set [3]; in data set [4]; in data set [5] (sf9)) was “Not Active” each time. For the same compound, the Ki result in data set [1] was “Not Active”.
`CN[C@@H]1[C@H](O)[C@H](NC)[C@H]2O[C@@]3(O)C(=O)C[C@@H](C)O[C@H]3O[C@@H]2[C@H]1O` [SPECTINOMYCIN]: the IC50 result (at Adenosine receptor A2a; in data set [1]; in data set [2]; in data set [3]; in data set [4]; in data set [5] (sf9)) was “Not Active” in each case. For the same compound, the Ki entry in data set [1] was “Not Active”.
Regarding `Nc1ccc(S(=O)(=O)Nc2ncccn2)cc1` [SULFADIAZINE], the IC50 result (at Adenosine receptor A2a; in data set [1]; in data set [2]; in data set [3]; in data set [4]; in data set [5] (sf9)) was “Not Active” each time. Besides, the inhibition constant (Ki) result in data set [1] is “Not Active”.
For `COc1ncnc(NS(=O)(=O)c2ccc(N)cc2)c1OC` [SULFADOXINE], the IC50 result (on Adenosine receptor A2a; in data set [1]; in data set [2]; in data set [3]; in data set [4]; in data set [5] (sf9)) was “Not Active” in each case. Also, the Ki entry in data set [1] is “Not Active”.
For `Nc1ccc(S(=O)(=O)Nc2nccs2)cc1` [SULFATHIAZOLE], the IC50 result (on Adenosine receptor A2a; in data set [1]; in data set [2]; in data set [3]; in data set [4]; in data set [5] (sf9)) was “Not Active” each time. The Ki result in data set [1] was “Not Active”.
As to `CC(C)(C)NC[C@H](O)COc1nsnc1N1CCOCC1` [TIMOLOL], the IC50 result (on Adenosine receptor A2a; in data set [1]; in data set [2]; in data set [3]; in data set [4]; in data set [5] (sf9)) was “Not Active” throughout. Also, the Ki entry in data set [1] was “Not Active”.
Take `CCS(=O)(=O)CCn1c([N+](=O)[O-])cnc1C` [TINIDAZOLE]: the IC50 result (on Adenosine receptor A2a; in data set [1]; in data set [2]; in data set [3]; in data set [4]; in data set [5] (sf9)) was “Not Active” throughout. For the same compound, in data set [1], the Ki result is recorded as “Not Active”.
For the compound `C[C@@H]1C[C@H]2[C@@H]3CCC4=CC(=O)C=C[C@]4(C)C3=CC[C@]2(C)[C@H]1C(=O)CN1CCN(c2cc(N3CCCC3)nc(N3CCCC3)n2)CC1` [TIRILAZAD], the IC50 entry on Adenosine receptor A2a is “Not Active”; in data set [1], “Not Active”; in data set [2] (read-out: IC50), 7410 nM; in data set [3], “Not Active”; in data set [4] it was “Not Active”; in data set [5] (sf9), “Not Active”. Besides, the Ki entry in data set [1] is on record as “Not Active”.
As for `NC[C@H]1O[C@H](O[C@H]2[C@H](O)[C@@H](O[C@H]3O[C@H](CO)[C@@H](O)[C@H](N)[C@H]3O)[C@H](N)C[C@@H]2N)[C@H](N)C[C@@H]1O` [TOBRAMYCIN], the IC50 result (at Adenosine receptor A2a; in data set [1]; in data set [2]; in data set [3]; in data set [4]; in data set [5] (sf9)) was “Not Active” throughout. Further, in data set [1], the Ki result is reported as “Not Active”.
As to `O=C(O)C(Cl)(Cl)Cl` [TRICHLOROACETIC ACID], the IC50 entry (at Adenosine receptor A2a; in data set [1]; in data set [2]; in data set [3]; in data set [4]; in data set [5] (sf9)) was “Not Active” throughout. In addition, the Ki result in data set [1] is “Not Active”.
Take `COc1ccc(CN2CCNCC2)c(OC)c1OC` [TRIMETAZIDINE]: the IC50 result (at Adenosine receptor A2a; in data set [1]; in data set [2]; in data set [3]; in data set [4]; in data set [5] (sf9)) was “Not Active” each time. Besides, the Ki entry in data set [1] is “Not Active”.
For `CC(=O)O[C@H]1C[C@@H]2CC[C@@H]3[C@H](CC[C@@]4(C)[C@H]3C[C@H]([N+]3(C)CCCCC3)[C@@H]4OC(C)=O)[C@@]2(C)C[C@@H]1N1CCCCC1.[Br-]` [VECURONIUM BROMIDE], the IC50 entry (on Adenosine receptor A2a; in data set [1]; in data set [2]; in data set [3]; in data set [4]; in data set [5] (sf9)) was “Not Active” throughout. Moreover, in data set [1], the inhibition constant (Ki) entry is on record as “Not Active”.
For the compound `COc1cc(C(=O)NS(=O)(=O)c2ccccc2C)ccc1Cc1cn(C)c2ccc(NC(=O)OC3CCCC3)cc12` [ZAFIRLUKAST], the IC50 result at Adenosine receptor A2a is “Not Active”; in data set [1], “Not Active”; in data set [2] (read-out: IC50), 353 nM; in data set [3], “Not Active”; in data set [4] it was “Not Active”; in data set [5] (sf9), “Not Active”. Also, the Ki result in data set [1] was “Not Active”.
On to `Cc1cn([C@H]2C[C@H](N=[N+]=[N-])[C@@H](CO)O2)c(=O)[nH]c1=O` [ZIDOVUDINE], for which the IC50 result (at Adenosine receptor A2a; in data set [1]; in data set [2]; in data set [3]; in data set [4]; in data set [5] (sf9)) was “Not Active” in each case. Besides, the inhibition constant Ki result in data set [1] was “Not Active”.
